The species named for assay [1] is Danio rerio. The assay is described as follows: Suppression of Bmp signaling in Zebrafish tBr injected mRNA embryos assessed as reduction in slight loss of tail tissue at 2.5 uM measured at 26 hrs post fertilization. Format: functional, Embryo. The arrangement: scale not given: the % may be the effect or the level left.
For assay [2], the species on record is Danio rerio. The assay is described as follows: Suppression of Bmp signaling in Zebrafish tBr injected mRNA embryos assessed as reduction in indistinctive tail tissue at 2.5 uM measured at 26 hrs post fertilization. The class given is functional, Embryo. Also noted: scale not given: the % may be the effect or the level left.
Assay [3] deals with Osteoblast. Nature of the assay: Induction of osteoblast differentiation in transgenic osx mCherry Zebrafish embryo assessed as increase in Sox9a mRNA expression in fin at 0.1 % measured after 15 days by semiquantitative PCR analysis. The class given is functional, tissue-based. The note with it: Danio rerio, time 15.0 day.
The subject of assay [4] is Osteoblast. The assay is described as follows: Induction of osteoblast differentiation in transgenic osx mCherry Zebrafish embryo assessed as increase in Sox9b mRNA expression in fin at 0.1 % measured after 15 days by semiquantitative PCR analysis. The class given is functional, tissue-based. Particulars: Danio rerio, time 15.0 day.
The test system of assay [5] is Osteoblast. The assay is described as follows: Induction of osteoblast differentiation in transgenic osx mCherry Zebrafish embryo assessed as increase in Col10a1a mRNA expression in fin at 0.1 % measured after 15 days by semiquantitative PCR analysis. Format: functional. The note with it: Danio rerio, time 15.0 day.
For assay [6], the system named is Osteoblast. The assay is described as follows: Induction of osteoblast differentiation in transgenic osx mCherry Zebrafish embryo assessed as increase in Col1a2 mRNA expression in fin at 0.1 % measured after 15 days by semiquantitative PCR analysis. Format: functional, tissue-based. Particulars: Danio rerio, time 15.0 day.
The species entered for assay [7] is Danio rerio. The assay is described as follows: Anti-osteoporosis activity in FAC-induced skeletal injury Zebrafish assessed as increase in cumulative bone optical density in caudal fins at 0.1 % measured for 10 day post fertilization. The class given is functional, organism-based.
The species entered for assay [8] is Danio rerio. The assay is described as follows: Anti-osteoporosis activity in FAC-induced skeletal injury Zebrafish assessed as increase in cumulative bone optical density in spine at 0.1 % measured for 10 day post fertilization. Format: functional, organism-based.

Activity calls are given as the source filed them. The calls are words filed in the database; no cut-off is given here.

On to `c1cc(-c2cnn3cc(-c4ccc(OCCN5CCCCC5)cc4)cnc23)ccn1` [DORSOMORPHIN], for which the Activity in the assay filed under Danio rerio [1] and in the assay filed under Danio rerio [2] was 80% in each case.
As for `NCCCC(O)(P(=O)(O)O)P(=O)(O)O`, the outcome with Osteoblast [3], in the assay on Osteoblast [4], in the assay on Osteoblast [5], in the assay with Osteoblast [6], in the assay listed under Danio rerio [7] and in the assay filed under Danio rerio [8] was Active.

The values above are taken from ChEMBL document CHEMBL5149973, “Agaricus bisporus-Derived Glucosamine Hydrochloride Facilitates Skeletal Injury Repair through Bmp Signaling in Zebrafish Osteoporosis Model” (J Nat Prod, 2021).
